Earlier results on three compounds are cited in patent EP3409275B1, “COMPOSITION FOR PREVENTION AND/OR TREATMENT OF DISEASES ASSOCIATED TO HYPERALGESIA” (Neilos S.r.l., priority 2017, dated 2018).

One series addresses GPR55 orphan receptor (Homo sapiens, UniProt Q9Y2T6). As to conditions: activation of GPR55.
For series [1] the following is noted: mice, curcumin 40 mg/kg, phenylbutazone at similar doses.
For series [2] the following is noted: 2 g of curcumin with 20 mg of piperine, healthy volunteers.

Sequence of GPR55 orphan receptor (Q9Y2T6 whole entry): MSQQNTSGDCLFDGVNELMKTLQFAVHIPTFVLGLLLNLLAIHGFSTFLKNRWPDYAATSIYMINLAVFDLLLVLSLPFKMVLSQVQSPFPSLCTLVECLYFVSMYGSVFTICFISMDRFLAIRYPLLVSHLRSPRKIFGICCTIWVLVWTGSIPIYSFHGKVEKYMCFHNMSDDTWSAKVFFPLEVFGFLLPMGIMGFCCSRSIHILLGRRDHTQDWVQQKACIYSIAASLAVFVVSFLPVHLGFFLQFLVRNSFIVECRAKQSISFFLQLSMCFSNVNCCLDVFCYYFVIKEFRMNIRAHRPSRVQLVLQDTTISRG

In general, EC50 refers to the concentration at which the effect is half-maximal. For `CCCCCCCCCCCCCCCC(=O)NCCO` [PEA, N-(2-hydroxyethyl) hexadecanamide], the concentration for a half-maximal effect (EC50) at GPR55 orphan receptor was 4 nM. The removal half-life entry (in vivo) is “about 12 minutes”. Moreover, for the setting “oral administration”, the “area under the curve of PEA plasmatic level (AUC1-8h)” value is on record as 6525 ± 1372 ng PEA min ml-1 and the tmax is 15 min. Further, the “maximum plasmatic concentration (Cmax)” value (oral administration, Wistar rats) is given as 420 ± 132 nm.

For the compound `CCCCC1C(=O)N(c2ccccc2)N(c2ccccc2)C1=O` [phenylbutazone], in series [1], the ulcerogenic index was 1.70.

`O=C(/C=C/C=C/c1ccc2c(c1)OCO2)N1CCCCC1` [piperine]: the “increase in oral bioavailability of curcumin” value in series [2] is listed as 20 times.
